Test results taken from US6706663B2, “Herbicidal 3-heterocyclic substituted benzisothiazole and benzisoxazole compounds” (Wyeth, priority 2000, dated 2004).

Experiments:
CYPIR (Cyperus iria) = assay: Flooded paddy, preemergence weed control; type: in vivo; conditions: rated 3-4 weeks after treatment, 0-9 rating scale
Procedure, shortened: (§1)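 Seeds or propagating organs were sown in the top 0.5 cm of silt loam soil, flooded, and the water kept 1.5 to 3 cm above the soil surface throughout. Plants were grown in the greenhouse and rated visually on a 0-9 scale against a control.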

ORYSAT (Rice, Tebonnet) [1] = assay: Postemergence herbicidal evaluation; type: in vivo, Oryza sativa, (L.) Tebonnet; conditions: postemergence
Procedure, shortened: (§2)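 Visual 0–9 injury scores versus control plants, covering stand, vigour, malformation, size, chlorosis and general appearance, taken four to five weeks post-spray and averaged over replicate tests. Plants were sprayed at roughly two weeks old and held on greenhouse benches.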

[2] = test system: MOOVA (Monochoria vaginalis); assay: Flooded paddy, preemergence weed control; type: in vivo, Presl.; conditions: rated 3-4 weeks after treatment, 0-9 rating scale
Procedure, shortened: as §1

[3] = test system: IPOHE (Ipomoea hederacea); assay: Preemergence herbicidal evaluation; type: in vivo, (L.) Jacq.; conditions: preemergence, rated 4-5 weeks after treatment
[4] = test system: TRZAWR (Wheat, Winter, cv Riband); assay: Postemergence herbicidal evaluation; type: in vivo, Triticum aestivum; conditions: postemergence
Procedure, shortened: as §2

[5] = test system: IPOHE (Ipomoea hederacea); assay: Postemergence herbicidal evaluation; type: in vivo, (L.) Jacq.; conditions: postemergence
Procedure, shortened: as §2

[6] = test system: ECHCG (Echinochloa crus-galli); assay: Postemergence herbicidal evaluation; type: in vivo, (L.) Beau; conditions: postemergence
Procedure, shortened: as §2

GLXMA (Soybean) = assay: Preemergence herbicidal evaluation; type: in vivo, Glycine max, (L.) Merr.; conditions: preemergence, rated 4-5 weeks after treatment
[7] = test system: GLXMAW (Soybean, Williams); assay: Postemergence herbicidal evaluation; type: in vivo, Glycine max, (L.) Merr. cv Williams; conditions: postemergence
Procedure, shortened: as §2

[8] = test system: ECHCG (Echinochloa crus-galli); assay: Preemergence herbicidal evaluation; type: in vivo, (L.) Beau; conditions: preemergence, rated 4-5 weeks after treatment
Procedure, shortened: (§3)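 Steps: mix seeds with potting soil; plant on ~1 inch soil per cup; spray compound in aqueous acetone; hold on greenhouse benches with routine watering; rate 0–9 visually against control at 4–5 weeks.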

[9] = test system: ABUTH (Abutilon theophrasti); assay: Preemergence herbicidal evaluation; type: in vivo, Medic.; conditions: preemergence, rated 4-5 weeks after treatment
ORYSAT (Rice, Tebonnet) [10] = assay: Flooded paddy, post-transplant rice tolerance; type: in vivo, Oryza sativa, (L.) Tebonnet; conditions: in vivo
Procedure, shortened: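 Steps: transplant two ten-day-old seedlings into silt loam; flood to 1.5-3 cm above soil; apply herbicide post-transplant; maintain water on greenhouse benches; rate stand, vigor, malformation, size and chlorosis on a 0-9 visual scale versus control.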

[11] = test system: ABUTH (Abutilon theophrasti); assay: Postemergence herbicidal evaluation; type: in vivo, Medic.; conditions: postemergence
Procedure, shortened: as §2

ZEAMX (Corn, Field) [12] = assay: Preemergence herbicidal evaluation; type: in vivo, Zea mays, L.; conditions: preemergence, rated 4-5 weeks after treatment
[13] = test system: SAGPY (Sagittaria pygmaea); assay: Flooded paddy, preemergence weed control; type: in vivo, L.; conditions: rated 3-4 weeks after treatment, 0-9 rating scale
Procedure, shortened: as §1

GALAP (Galium aparine) [14] = assay: Preemergence herbicidal evaluation; type: in vivo; conditions: preemergence, rated 4-5 weeks after treatment
Procedure, shortened: as §3

[15] = test system: CASOB (Cassia obtusifolia); assay: Postemergence herbicidal evaluation; type: in vivo, L.; conditions: postemergence
Procedure, shortened: as §2

[16] = test system: CHEAL (Chenopodium album); assay: Postemergence herbicidal evaluation; type: in vivo, L.; conditions: postemergence
Procedure, shortened: as §2

[17] = test system: AMBEL (Ambrosia artemisifolia); assay: Postemergence herbicidal evaluation; type: in vivo, L.; conditions: postemergence
Procedure, shortened: as §2

GALAP (Galium aparine) [18] = assay: Postemergence herbicidal evaluation; type: in vivo; conditions: postemergence
Procedure, shortened: as §2

ZEAMX (Corn, Field) [19] = assay: Postemergence herbicidal evaluation; type: in vivo, Zea mays, L.; conditions: postemergence
Procedure, shortened: as §2

[20] = test system: AMBEL (Ambrosia artemisifolia); assay: Preemergence herbicidal evaluation; type: in vivo, L.; conditions: preemergence, rated 4-5 weeks after treatment
Procedure, shortened: as §3

[21] = test system: ECHORC (Echinochloa oryzoides); assay: Flooded paddy, preemergence weed control; type: in vivo, Echinochloa oryzoides (Ard.) Fritsch.; conditions: rated 3-4 weeks after treatment, 0-9 rating scale
Procedure, shortened: as §1

1-methyl-3-[3-(4-oxo-delta-2-1,2,5-thiadiazolin-3-yl)-1,2-benzisothiazol-5-yl]-6-(trifluoromethyl)uracil S′,S′-dioxide [Compound 92]
CYPIR herbicidal rating (CYPIR (Cyperus iria); rate 0.0320 kg/ha): 0.0
CYPIR herbicidal rating (CYPIR (Cyperus iria); rate 0.1250 kg/ha): 8.0
ORYSAT herbicidal rating (ORYSAT (Rice, Tebonnet) [1]; rate 0.0320 kg/ha): 1.0
ORYSAT herbicidal rating (ORYSAT (Rice, Tebonnet) [1]; rate 0.0620 kg/ha): 1.0
ORYSAT herbicidal rating (ORYSAT (Rice, Tebonnet) [1]; rate 0.1250 kg/ha): 1.0
MOOVA herbicidal rating ([2]; rate 0.0320 kg/ha): 0.0
MOOVA herbicidal rating ([2]; rate 0.1250 kg/ha): 8.0
Preemergence herbicidal rating IPOHE ([3]; rate 0.0620 kg/ha): 0.0
Preemergence herbicidal rating IPOHE ([3]; rate 0.1250 kg/ha): 0.0
Preemergence herbicidal rating IPOHE ([3]; rate 0.2500 kg/ha): 4.0
TRZAWR herbicidal rating ([4]; rate 0.0320 kg/ha): 1.0
TRZAWR herbicidal rating ([4]; rate 0.0620 kg/ha): 1.5
TRZAWR herbicidal rating ([4]; rate 0.1250 kg/ha): 1.5
IPOHE herbicidal rating ([5]; rate 0.0320 kg/ha): 6.0
IPOHE herbicidal rating ([5]; rate 0.0620 kg/ha): 8.0
IPOHE herbicidal rating ([5]; rate 0.1250 kg/ha): 8.0
ECHCG herbicidal rating ([6]; rate 0.0320 kg/ha): 2.0
ECHCG herbicidal rating ([6]; rate 0.0620 kg/ha): 3.0
ECHCG herbicidal rating ([6]; rate 0.1250 kg/ha): 4.0
Preemergence herbicidal rating GLXMA (GLXMA (Soybean); rate 0.0620 kg/ha): 0.0
Preemergence herbicidal rating GLXMA (GLXMA (Soybean); rate 0.1250 kg/ha): 0.0
Preemergence herbicidal rating GLXMA (GLXMA (Soybean); rate 0.2500 kg/ha): 0.0
GLXMAW herbicidal rating ([7]; rate 0.0320 kg/ha): 5.0
GLXMAW herbicidal rating ([7]; rate 0.0620 kg/ha): 5.0
GLXMAW herbicidal rating ([7]; rate 0.1250 kg/ha): 5.5
Preemergence herbicidal rating ECHCG ([8]; rate 0.0620 kg/ha): 0.0
Preemergence herbicidal rating ECHCG ([8]; rate 0.1250 kg/ha): 0.0
Preemergence herbicidal rating ECHCG ([8]; rate 0.2500 kg/ha): 0.0
Preemergence herbicidal rating ABUTH ([9]; rate 0.0620 kg/ha): 0.0
Preemergence herbicidal rating ABUTH ([9]; rate 0.1250 kg/ha): 0.0
Preemergence herbicidal rating ABUTH ([9]; rate 0.2500 kg/ha): 3.0
ORYSAT herbicidal rating (transplanted rice tolerance) (ORYSAT (Rice, Tebonnet) [10]): 0.0
ABUTH herbicidal rating ([11]; rate 0.0320 kg/ha): 6.0
ABUTH herbicidal rating ([11]; rate 0.0620 kg/ha): 7.0
ABUTH herbicidal rating ([11]; rate 0.1250 kg/ha): 9.0
Preemergence herbicidal rating ZEAMX (ZEAMX (Corn, Field) [12]; rate 0.0620 kg/ha): 0.0
Preemergence herbicidal rating ZEAMX (ZEAMX (Corn, Field) [12]; rate 0.1250 kg/ha): 0.0
Preemergence herbicidal rating ZEAMX (ZEAMX (Corn, Field) [12]; rate 0.2500 kg/ha): 0.0
SAGPY herbicidal rating ([13]; rate 0.0320 kg/ha): 0.0
SAGPY herbicidal rating ([13]; rate 0.1250 kg/ha): 0.0
Preemergence herbicidal rating GALAP (GALAP (Galium aparine) [14]; rate 0.0620 kg/ha): 0.0
Preemergence herbicidal rating GALAP (GALAP (Galium aparine) [14]; rate 0.1250 kg/ha): 0.0
Preemergence herbicidal rating GALAP (GALAP (Galium aparine) [14]; rate 0.2500 kg/ha): 2.0
CASOB herbicidal rating ([15]; rate 0.0320 kg/ha): 4.0
CASOB herbicidal rating ([15]; rate 0.0620 kg/ha): 5.0
CASOB herbicidal rating ([15]; rate 0.1250 kg/ha): 5.0
CHEAL herbicidal rating ([16]; rate 0.0320 kg/ha): 3.0
CHEAL herbicidal rating ([16]; rate 0.0620 kg/ha): 6.0
CHEAL herbicidal rating ([16]; rate 0.1250 kg/ha): 6.0
AMBEL herbicidal rating ([17]; rate 0.0320 kg/ha): 3.0
AMBEL herbicidal rating ([17]; rate 0.0620 kg/ha): 5.0
AMBEL herbicidal rating ([17]; rate 0.1250 kg/ha): 6.0
GALAP herbicidal rating (GALAP (Galium aparine) [18]; rate 0.0320 kg/ha): 2.0
GALAP herbicidal rating (GALAP (Galium aparine) [18]; rate 0.0620 kg/ha): 3.0
GALAP herbicidal rating (GALAP (Galium aparine) [18]; rate 0.1250 kg/ha): 4.0
ZEAMX herbicidal rating (ZEAMX (Corn, Field) [19]; rate 0.0320 kg/ha): 2.0
ZEAMX herbicidal rating (ZEAMX (Corn, Field) [19]; rate 0.0620 kg/ha): 2.5
ZEAMX herbicidal rating (ZEAMX (Corn, Field) [19]; rate 0.1250 kg/ha): 3.0
Preemergence herbicidal rating AMBEL ([20]; rate 0.0620 kg/ha): 0.0
Preemergence herbicidal rating AMBEL ([20]; rate 0.1250 kg/ha): 0.0
Preemergence herbicidal rating AMBEL ([20]; rate 0.2500 kg/ha): 0.0
ECHORC herbicidal rating ([21]; rate 0.0320 kg/ha): 0.0
ECHORC herbicidal rating ([21]; rate 0.1250 kg/ha): 0.0
